Reference: patent US8633168B2, “Inhibitors of S-adenosyl-L-methionine decarboxylase” (Genzyme Corporation, priority 2007, dated 2014)

How the values were obtained:
[1] = Solubility in phosphate buffer; format: physicochemical; conditions: phosphate buffer, aqueous buffer, kinetic from dmso stock; Example 12 chart; pH 7.4
Description: A stock solution for each test compound was prepared at 25 mM in DMSO. These were diluted into phosphate buffer and equilibrated for 16 hours at room temperature, and then filtered to remove precipitated compound. The UV absorbance of this equilibrated sample was compared to a single point reference standard.

CYP3A4 = CYP3A4 (Homo sapiens, UniProt P08684); experiment: Cytochrome P450 inhibition, CYP3A4
Chain of CYP3A4 (P08684 whole entry): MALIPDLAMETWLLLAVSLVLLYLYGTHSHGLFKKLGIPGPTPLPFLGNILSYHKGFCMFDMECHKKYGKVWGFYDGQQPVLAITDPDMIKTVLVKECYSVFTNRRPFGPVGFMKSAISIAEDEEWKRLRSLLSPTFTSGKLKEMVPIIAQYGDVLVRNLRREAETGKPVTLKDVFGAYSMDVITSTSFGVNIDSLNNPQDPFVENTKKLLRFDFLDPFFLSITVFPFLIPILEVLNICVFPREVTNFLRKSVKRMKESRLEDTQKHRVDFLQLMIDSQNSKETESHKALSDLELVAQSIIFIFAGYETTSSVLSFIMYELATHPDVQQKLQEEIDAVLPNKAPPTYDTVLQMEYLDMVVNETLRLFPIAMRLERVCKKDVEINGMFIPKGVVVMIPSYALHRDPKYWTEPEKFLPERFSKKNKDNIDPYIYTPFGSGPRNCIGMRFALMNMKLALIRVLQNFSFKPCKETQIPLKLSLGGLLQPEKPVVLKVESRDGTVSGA
From the text: (§1) This cytochrome P450 high throughput IC50 inhibition assay is utilized for screening potential inhibitors of the 5 major human CYP isozyme catalytic activities (CYP3A4, 2D6, 2C9, 2C19, and 1A2).

CYP2D6 = CYP2D6 (Homo sapiens, UniProt P10635); experiment: Cytochrome P450 inhibition, CYP2D6
Chain of CYP2D6 (P10635 whole entry): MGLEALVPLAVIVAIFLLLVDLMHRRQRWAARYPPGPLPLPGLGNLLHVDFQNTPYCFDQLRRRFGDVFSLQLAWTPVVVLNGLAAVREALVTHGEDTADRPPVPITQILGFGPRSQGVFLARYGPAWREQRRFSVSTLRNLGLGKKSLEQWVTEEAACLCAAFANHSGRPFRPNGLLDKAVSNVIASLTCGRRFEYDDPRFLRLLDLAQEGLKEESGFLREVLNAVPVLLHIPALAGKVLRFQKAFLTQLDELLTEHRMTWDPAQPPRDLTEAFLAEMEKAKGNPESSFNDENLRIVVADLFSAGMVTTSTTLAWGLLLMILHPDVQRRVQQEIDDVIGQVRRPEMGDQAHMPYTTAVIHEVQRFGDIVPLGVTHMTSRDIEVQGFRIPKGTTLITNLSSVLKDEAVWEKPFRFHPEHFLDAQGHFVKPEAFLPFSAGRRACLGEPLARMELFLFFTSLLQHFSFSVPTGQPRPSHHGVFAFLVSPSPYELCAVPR
From the text: as §1

CYP2C9 = CYP2C9 (Homo sapiens, UniProt P11712); experiment: Cytochrome P450 inhibition, CYP2C9
Chain of CYP2C9 (P11712 whole entry): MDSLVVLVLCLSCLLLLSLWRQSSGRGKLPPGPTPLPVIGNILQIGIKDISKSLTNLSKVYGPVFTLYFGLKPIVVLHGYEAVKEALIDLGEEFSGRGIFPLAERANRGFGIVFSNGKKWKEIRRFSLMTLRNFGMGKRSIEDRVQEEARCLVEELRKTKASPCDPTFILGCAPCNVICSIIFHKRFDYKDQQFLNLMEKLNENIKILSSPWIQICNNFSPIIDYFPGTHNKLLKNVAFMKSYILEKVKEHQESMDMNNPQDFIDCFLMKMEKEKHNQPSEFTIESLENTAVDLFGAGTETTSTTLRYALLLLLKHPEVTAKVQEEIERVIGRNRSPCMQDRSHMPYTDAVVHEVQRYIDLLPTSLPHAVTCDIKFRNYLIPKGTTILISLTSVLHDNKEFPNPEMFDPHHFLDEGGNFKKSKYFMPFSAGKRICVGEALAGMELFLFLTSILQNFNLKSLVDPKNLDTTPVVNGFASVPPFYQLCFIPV
From the text: as §1

CYP2C19 = CYP2C19 (Homo sapiens, UniProt P33261); experiment: Cytochrome P450 inhibition, CYP2C19
Chain of CYP2C19 (P33261 whole entry): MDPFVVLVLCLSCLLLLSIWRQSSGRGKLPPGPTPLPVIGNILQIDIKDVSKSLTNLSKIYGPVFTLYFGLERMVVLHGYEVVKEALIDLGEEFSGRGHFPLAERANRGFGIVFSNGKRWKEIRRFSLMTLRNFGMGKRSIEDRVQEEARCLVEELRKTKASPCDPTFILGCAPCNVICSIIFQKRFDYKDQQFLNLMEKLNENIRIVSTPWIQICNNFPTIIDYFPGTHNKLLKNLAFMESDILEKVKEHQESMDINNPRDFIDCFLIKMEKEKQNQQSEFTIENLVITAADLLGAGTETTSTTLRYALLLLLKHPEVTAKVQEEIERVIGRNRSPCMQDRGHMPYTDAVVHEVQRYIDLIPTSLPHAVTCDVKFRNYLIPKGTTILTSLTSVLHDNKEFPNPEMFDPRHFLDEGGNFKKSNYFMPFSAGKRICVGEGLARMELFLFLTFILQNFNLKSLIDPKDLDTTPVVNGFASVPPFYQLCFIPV
From the text: as §1

CYP1A2 = target: T1, CYP1A2 (Homo sapiens, UniProt P05177); experiment: Cytochrome P450 inhibition, CYP1A2
T1 sequence (P05177 1-516): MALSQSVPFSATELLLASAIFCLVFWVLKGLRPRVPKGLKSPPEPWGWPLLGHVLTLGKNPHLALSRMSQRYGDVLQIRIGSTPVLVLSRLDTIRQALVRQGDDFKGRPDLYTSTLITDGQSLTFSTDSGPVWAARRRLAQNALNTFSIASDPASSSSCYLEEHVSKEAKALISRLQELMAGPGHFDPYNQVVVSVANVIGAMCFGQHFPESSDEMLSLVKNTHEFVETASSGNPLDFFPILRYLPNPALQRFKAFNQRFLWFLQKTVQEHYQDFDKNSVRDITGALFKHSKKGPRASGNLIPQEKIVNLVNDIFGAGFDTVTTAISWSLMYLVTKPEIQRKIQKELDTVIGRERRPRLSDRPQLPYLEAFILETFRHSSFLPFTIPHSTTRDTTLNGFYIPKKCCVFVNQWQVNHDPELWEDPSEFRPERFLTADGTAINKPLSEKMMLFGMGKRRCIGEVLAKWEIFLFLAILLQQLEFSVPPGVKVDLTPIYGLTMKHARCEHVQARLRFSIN
From the text: as §1

T. b. brucei = experiment: Cell-based screening against T. b. brucei; parameters: species or system Trypanosoma brucei brucei; conditions: Screening Data, two values per compound
Description: The bloodstream form trypomastigotes of the three strains are maintained according to standard protocols established at STI.
Drug sensitivity assays are performed in sterile 96-well microtiter plates, with or without serial drug dilutions. The highest concentration for the test compounds is 90 μg/ml. Each drug is tested in duplicate. After 72 hours of incubation the plates are inspected microscopically to assure growth of the controls to determine the minimum inhibitory concentration (MIC), i.e., the lowest drug concentration at which no trypanosomes with normal morphology and motility can be seen compared to control wells. Cell viability is measured by Alamar blue staining and IC50 values are calculated.
Active compounds (IC50<0.2 μg/ml) are tested against the Trypanosoma brucei gambiense STIB 930 and the multi-drug resistant T. b. brucei STIB 950 following the same protocol as described above.
This example provides data relating to the biological screening results. MDL 73811 and selected new compounds 1-7 were tested against a variety of cell-based organisms and enzymes and the IC50 measured. In vitro ADME profiles were also obtained. Solubility, permeability, microsomal/hepatocyte stability, cychrome P450 inhibition and plasma protein binding characteristics were probed for each of the compounds. The methodology for these tests are described in previous paragraphs. The results are summarized in the following 2 charts.

Schistosomes adult = experiment: Screening against Schistosomes, adult; format: cell-based; conditions: Screening Data
Schistosomes lavae = experiment: Screening against Schistosomes, larvae; format: cell-based; conditions: Screening Data

SMILES	solubility at 16 hours [1]	IC50 (CYP3A4)	IC50 (CYP2D6)	IC50 (CYP2C9)	IC50 (CYP2C19)	IC50 (CYP1A2)	IC50 (T. b. brucei; Trypanosoma brucei)	IC50 (Schistosomes adult)	IC50 (Schistosomes lavae)	logD (LogD)	IC50 (T. b. brucei)
Cc1nc(N)c2ncn([C@@H]3O[C@H](CN(C)C/C=C\CN)[C@@H](O)[C@H]3O)c2n1 [Compound 5]	> 49 µg/mL	> 5 µM	> 5 µM	> 5 µM	> 5 µM	> 5 µM	> 14 µM	> 10 µM	> 10 µM	< 1	–
CCc1nc2c(N)ncnc2n1[C@@H]1O[C@H](CN(C)C/C=C\CN)[C@@H](O)[C@H]1O [Compound 6]	> 51 µg/mL	> 5 µM	> 5 µM	> 5 µM	> 5 µM	> 5 µM	1.16 µM	> 10 µM	> 10 µM	< 1	0.64 µM
CCCc1nc2c(N)ncnc2n1[C@@H]1O[C@H](CN(C)C/C=C\CN)[C@@H](O)[C@H]1O [Compound 7]	> 52 µg/mL	> 5 µM	> 5 µM	> 5 µM	> 5 µM	> 5 µM	12.7 µM	> 10 µM	> 10 µM	< 1	9.4 µM
